According to US10344060B2 (priority 2013, dated 2019):
Where “and” joins values, the source holds several entries; their conditions need not be identical. Identical values can stand only once. Entries after “also recorded” stand apart in the source; their conditions may differ. Like-named read-outs stand apart in the source and are kept apart here.

Key:
hNav1.5 [1] = molecular target: T1, hNav1.5 (Homo sapiens, UniProt Q14524); experiment: cell-based; conditions: IonWorks Quattro; Table 6; read-out: IC50 (μM) Nav1.5
hNav1.5 [2] = molecular target: T1, hNav1.5; experiment: cell-based; format: cell-based
[3] = system: TTX-resistant Nav channels in mouse DRG neuron
hNav1.3 = hNav1.3 (Homo sapiens, UniProt Q9NY46); experiment: cell-based; format: cell-based; conditions: 300 nM; held at −80 mV
hNav1.7 [4] = molecular target: T2, hNav1.7 (Homo sapiens, UniProt Q15858); experiment: cell-based; format: cell-based
[5] = system: TTX-sensitive Nav channels in mouse DRG neuron; conditions: for 1.x/1.7: mTTX-S / hNav1.7
hNav1.8 [6] = molecular target: hNav1.8 (Homo sapiens, UniProt Q9Y5Y9); experiment: cell-based; format: cell-based
hNav1.8 [7] = experiment: cell-based; format: cell-based, human; conditions: hNav1.8 / hNav1.7
hNav1.4 = hNav1.4 (Homo sapiens, UniProt P35499); experiment: cell-based; format: cell-based; conditions: 100 nM; held at −83 mV
[8] = rat plasma, 37° C., incubation time 0 hr (normalization point)
[9] = mouse plasma, 37° C., incubation 0 hr (normalisation point)
[10] = cyno plasma, 37° C., incubation 0 hr (normalisation point)
[11] = human plasma, 37° C., incubation 0 hr (normalisation point)
hNav1.7 [12] = molecular target: T2, hNav1.7; experiment: cell-based; conditions: ratio of IonWorks Quattro IC50 values, Nav1.4 over Nav1.7

T2 sequence (Q15858 whole entry): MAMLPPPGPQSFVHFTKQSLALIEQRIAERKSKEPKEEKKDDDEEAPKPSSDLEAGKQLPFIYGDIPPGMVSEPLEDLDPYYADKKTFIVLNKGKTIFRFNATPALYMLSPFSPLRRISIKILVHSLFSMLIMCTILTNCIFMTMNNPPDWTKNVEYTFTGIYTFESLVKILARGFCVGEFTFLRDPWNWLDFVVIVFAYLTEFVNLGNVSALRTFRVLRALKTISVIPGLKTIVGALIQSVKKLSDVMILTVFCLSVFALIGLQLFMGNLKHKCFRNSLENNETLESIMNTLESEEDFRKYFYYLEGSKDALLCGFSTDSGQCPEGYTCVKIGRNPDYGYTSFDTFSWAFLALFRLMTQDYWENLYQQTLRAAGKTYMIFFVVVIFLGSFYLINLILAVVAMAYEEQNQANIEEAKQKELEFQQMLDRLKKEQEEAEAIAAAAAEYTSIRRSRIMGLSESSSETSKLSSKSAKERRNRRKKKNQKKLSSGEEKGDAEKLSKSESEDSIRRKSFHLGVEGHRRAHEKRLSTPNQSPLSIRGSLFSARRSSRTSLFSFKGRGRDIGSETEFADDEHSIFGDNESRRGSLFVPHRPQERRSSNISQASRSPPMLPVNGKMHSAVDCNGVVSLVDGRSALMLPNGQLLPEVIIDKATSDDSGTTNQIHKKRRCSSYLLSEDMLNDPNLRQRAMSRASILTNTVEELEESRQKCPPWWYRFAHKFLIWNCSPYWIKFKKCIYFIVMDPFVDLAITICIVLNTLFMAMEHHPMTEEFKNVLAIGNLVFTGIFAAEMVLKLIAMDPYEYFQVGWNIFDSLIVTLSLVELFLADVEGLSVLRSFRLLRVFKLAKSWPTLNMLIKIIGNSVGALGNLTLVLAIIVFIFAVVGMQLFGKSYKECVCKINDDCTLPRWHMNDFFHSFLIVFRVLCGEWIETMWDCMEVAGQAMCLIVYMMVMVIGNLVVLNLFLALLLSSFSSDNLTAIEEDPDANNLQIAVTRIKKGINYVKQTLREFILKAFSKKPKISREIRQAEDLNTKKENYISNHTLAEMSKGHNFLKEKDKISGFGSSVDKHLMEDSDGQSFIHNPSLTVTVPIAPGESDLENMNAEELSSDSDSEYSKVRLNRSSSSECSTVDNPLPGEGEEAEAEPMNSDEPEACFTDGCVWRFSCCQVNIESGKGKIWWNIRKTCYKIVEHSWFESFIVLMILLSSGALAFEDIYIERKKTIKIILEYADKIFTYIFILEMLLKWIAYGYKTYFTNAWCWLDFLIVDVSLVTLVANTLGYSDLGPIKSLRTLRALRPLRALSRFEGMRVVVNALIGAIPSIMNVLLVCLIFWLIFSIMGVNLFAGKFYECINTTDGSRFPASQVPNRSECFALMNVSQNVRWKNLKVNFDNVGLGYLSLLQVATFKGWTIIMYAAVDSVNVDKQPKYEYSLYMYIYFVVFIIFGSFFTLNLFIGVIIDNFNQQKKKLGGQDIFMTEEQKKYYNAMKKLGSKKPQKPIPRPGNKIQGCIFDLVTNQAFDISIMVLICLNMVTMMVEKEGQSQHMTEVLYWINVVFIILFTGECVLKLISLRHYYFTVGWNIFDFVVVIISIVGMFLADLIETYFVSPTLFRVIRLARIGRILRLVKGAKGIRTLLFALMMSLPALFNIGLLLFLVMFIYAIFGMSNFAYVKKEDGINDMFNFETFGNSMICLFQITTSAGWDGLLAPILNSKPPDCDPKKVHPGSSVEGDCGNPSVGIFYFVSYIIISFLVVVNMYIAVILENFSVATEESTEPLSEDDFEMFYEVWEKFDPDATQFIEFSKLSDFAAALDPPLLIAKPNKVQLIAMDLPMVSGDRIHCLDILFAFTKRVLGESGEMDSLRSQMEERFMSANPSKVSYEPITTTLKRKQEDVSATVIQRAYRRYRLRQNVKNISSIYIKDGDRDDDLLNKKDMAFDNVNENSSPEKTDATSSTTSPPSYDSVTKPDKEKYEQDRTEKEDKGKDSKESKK
T1 sequence (Q14524 whole entry): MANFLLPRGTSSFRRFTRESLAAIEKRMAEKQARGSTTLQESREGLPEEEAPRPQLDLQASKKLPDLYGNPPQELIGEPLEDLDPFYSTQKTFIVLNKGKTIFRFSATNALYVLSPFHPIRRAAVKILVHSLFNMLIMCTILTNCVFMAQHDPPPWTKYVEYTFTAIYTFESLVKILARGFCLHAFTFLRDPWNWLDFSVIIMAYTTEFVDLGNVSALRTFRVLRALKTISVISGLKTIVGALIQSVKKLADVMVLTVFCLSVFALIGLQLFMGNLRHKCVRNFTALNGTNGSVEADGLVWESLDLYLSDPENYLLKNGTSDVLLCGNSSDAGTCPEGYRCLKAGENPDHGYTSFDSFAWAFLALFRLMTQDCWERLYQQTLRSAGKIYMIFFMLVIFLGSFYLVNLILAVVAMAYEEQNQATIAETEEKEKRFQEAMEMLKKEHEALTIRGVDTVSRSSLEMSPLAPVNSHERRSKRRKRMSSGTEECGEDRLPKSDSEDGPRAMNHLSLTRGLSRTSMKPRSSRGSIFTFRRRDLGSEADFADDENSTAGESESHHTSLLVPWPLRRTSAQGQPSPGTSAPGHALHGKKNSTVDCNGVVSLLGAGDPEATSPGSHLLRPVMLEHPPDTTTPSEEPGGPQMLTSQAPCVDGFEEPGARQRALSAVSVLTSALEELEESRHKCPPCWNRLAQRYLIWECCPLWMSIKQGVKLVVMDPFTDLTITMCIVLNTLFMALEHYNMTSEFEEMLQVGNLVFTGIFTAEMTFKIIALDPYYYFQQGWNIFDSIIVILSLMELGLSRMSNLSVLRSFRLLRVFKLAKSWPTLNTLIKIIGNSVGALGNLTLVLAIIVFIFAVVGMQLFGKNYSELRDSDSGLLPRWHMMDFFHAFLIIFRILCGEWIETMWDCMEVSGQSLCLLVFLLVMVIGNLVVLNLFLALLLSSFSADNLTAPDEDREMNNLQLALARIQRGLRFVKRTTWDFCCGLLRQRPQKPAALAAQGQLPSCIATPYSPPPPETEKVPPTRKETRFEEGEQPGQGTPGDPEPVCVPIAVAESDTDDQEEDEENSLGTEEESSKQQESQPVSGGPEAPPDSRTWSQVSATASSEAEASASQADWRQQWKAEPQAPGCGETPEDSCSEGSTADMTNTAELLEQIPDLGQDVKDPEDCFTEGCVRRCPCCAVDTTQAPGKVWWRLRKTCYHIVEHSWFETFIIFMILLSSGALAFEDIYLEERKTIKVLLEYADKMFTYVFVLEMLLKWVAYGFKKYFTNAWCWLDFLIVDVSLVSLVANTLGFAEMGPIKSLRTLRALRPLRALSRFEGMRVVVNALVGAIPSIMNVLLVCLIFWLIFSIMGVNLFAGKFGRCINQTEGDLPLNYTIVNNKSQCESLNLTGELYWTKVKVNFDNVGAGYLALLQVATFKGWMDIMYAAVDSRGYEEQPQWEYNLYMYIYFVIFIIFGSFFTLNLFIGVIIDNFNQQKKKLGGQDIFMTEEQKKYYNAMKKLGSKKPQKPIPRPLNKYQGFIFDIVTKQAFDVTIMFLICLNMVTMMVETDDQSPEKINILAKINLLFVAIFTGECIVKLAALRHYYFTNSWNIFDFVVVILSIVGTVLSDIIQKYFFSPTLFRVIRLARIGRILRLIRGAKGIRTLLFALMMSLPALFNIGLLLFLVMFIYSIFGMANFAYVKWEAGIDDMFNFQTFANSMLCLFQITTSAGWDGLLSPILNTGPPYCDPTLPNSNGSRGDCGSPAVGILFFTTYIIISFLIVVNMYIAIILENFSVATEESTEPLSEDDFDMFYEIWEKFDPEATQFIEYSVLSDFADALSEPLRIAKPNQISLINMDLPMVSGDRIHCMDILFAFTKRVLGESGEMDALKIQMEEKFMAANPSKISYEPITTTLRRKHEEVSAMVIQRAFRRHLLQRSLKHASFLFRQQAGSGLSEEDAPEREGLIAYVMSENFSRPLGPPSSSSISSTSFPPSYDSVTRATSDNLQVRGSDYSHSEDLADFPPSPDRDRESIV

## CC[C@H](C)[C@H](NC(=O)[C@@H](NC(=O)[C@H](CCCCN)NC(=O)[C@H](CCCNC(=N)N)NC(=O)[C@@H]1CSSC[C@@H]2NC(=O)[C@H](C)NC(=O)[C@H](CCCNC(=N)N)NC(=O)[C@H](CCCCN)NC(=O)[C@H](CO)NC(=O)[C@H](CC(=O)O)NC(=O)[C@@H]3CSSC[C@H](NC(=O)[C@H](CCCNC(=N)N)NC(=O)[C@H](CC(C)C)NC(=O)CNC(=O)[C@H](CCC(=O)O)NC(=O)[C@H](CSSC[C@H](NC(=O)[C@@H](N)Cc4ccc(O)cc4)C(=O)N[C@@H](CCC(N)=O)C(=O)N[C@@H](CCCCN)C(=O)N[C@@H](Cc4c[nH]c5ccccc45)C(=O)N[C@@H](CCSC)C(=O)N[C@@H](Cc4c[nH]c5ccccc45)C(=O)N[C@@H]([C@@H](C)O)C(=O)N3)NC2=O)C(=O)N[C@@H](CCCCN)C(=O)N[C@@H](CC(C)C)C(=O)N[C@@H](Cc2c[nH]c3ccccc23)C(=O)N1)[C@@H](C)CC)C(N)=O [compound 2]
hNav1.5 [1]
  IC50: 3 µM and 3.5 µM
hNav1.5 [2]; 3 μM, held at −85 mV
  block of hNav1.5 current, in words: blocked most Nav1.5 current; also recorded: nearly complete inhibition
hNav1.5 [2]; manual WCPC, ~20% inactivation, read-out: IC50 of hNav1.5 inhibition
  IC50: 0.426 µM
[3]
  IC50: > 1 µM
  IC50 of TTX-resistant sodium channel current inhibition: not measurable
hNav1.3
  block of hNav1.3 current, in words: completely blocked Nav1.3 current; also recorded: complete inhibition
hNav1.7 [4]; 1 nM as printed
  inhibition of hNav1.7 current, in words: complete inhibition
hNav1.7 [4]; 1 μM
  block of hNav1.7 current, in words: blocked all Nav1.7 current
[5]; fully non-inactivated
  1.x/1.7: 530
[5]; increasing concentrations, time course
  block of TTX-sensitive Nav current, in words: blocked nearly all TTX-sensitive Nav current
[5]; partially inactivated
  1.x/1.7: 111
hNav1.8 [6]
  block of TTX-resistant hNav1.8 current: approximately 50%
  inhibition of hNav1.8 current, in words: only partial inhibition
hNav1.8 [7]; fully non-inactivated
  1.x/1.7: 5724
hNav1.8 [7]; partially inactivated
  1.x/1.7: 3282
hNav1.4
  block of hNav1.4 current, in words: completely blocked Nav1.4 current; also recorded: complete inhibition

## CC[C@H](C)[C@H](NC(=O)[C@H](CCCCN)NC(=O)[C@H](CCCNC(=N)N)NC(=O)[C@@H]1CSSC[C@@H]2NC(=O)[C@H](C)NC(=O)[C@H](CCCNC(=N)N)NC(=O)[C@H](CCCCN)NC(=O)[C@H](CO)NC(=O)[C@H](CC(=O)O)NC(=O)[C@@H]3CSSC[C@H](NC(=O)[C@H](CCC(=O)O)NC(=O)[C@H](CC(C)C)NC(=O)CNC(=O)[C@H](CCC(=O)O)NC(=O)[C@H](CSSC[C@H](NC(=O)[C@@H](N)Cc4ccc(O)cc4)C(=O)N[C@@H](CCC(N)=O)C(=O)N[C@@H](CCCCN)C(=O)N[C@@H](Cc4c[nH]c5ccccc45)C(=O)N[C@@H](CCSC)C(=O)N[C@@H](Cc4c[nH]c5ccccc45)C(=O)N[C@@H]([C@@H](C)O)C(=O)N3)NC2=O)C(=O)N[C@@H](CCCCN)C(=O)N[C@@H](CC(C)C)C(=O)N[C@@H](Cc2c[nH]c3ccccc23)C(=O)N1)C(=O)N[C@@H](Cc1c[nH]c2ccccc12)C(N)=O [SEQ ID NO: 112, [Glu20,Trp29]JzTx-V(1-29)]
[8]
  % Peptide Remaining: 100%

## CC[C@H](C)[C@H](NC(=O)[C@H](CO)NC(=O)[C@H](CCCCN)NC(=O)[C@H](CCCNC(=N)N)NC(=O)[C@@H]1CSSC[C@@H]2NC(=O)[C@H](C)NC(=O)[C@H](CCCNC(=N)N)NC(=O)[C@H](CCCCN)NC(=O)[C@H](CO)NC(=O)[C@H](CC(=O)O)NC(=O)[C@@H]3CSSC[C@H](NC(=O)[C@H](CCC(=O)O)NC(=O)[C@H](CC(C)C)NC(=O)CNC(=O)[C@H](CCC(=O)O)NC(=O)[C@H](CSSC[C@H](NC(=O)[C@@H](N)Cc4ccc(O)cc4)C(=O)N[C@@H](CCC(N)=O)C(=O)N[C@@H](CCCCN)C(=O)N[C@@H](Cc4c[nH]c5ccccc45)C(=O)N[C@@H](CCSC)C(=O)N[C@@H](Cc4c[nH]c5ccccc45)C(=O)N[C@@H]([C@@H](C)O)C(=O)N3)NC2=O)C(=O)N[C@@H](CCCCN)C(=O)N[C@@H](CC(C)C)C(=O)N[C@@H](Cc2c[nH]c3ccccc23)C(=O)N1)C(N)=O [compound 138]
[9]
  % Peptide Remaining: 100%
[10]
  % Peptide Remaining: 100%
[11]
  % Peptide Remaining: 100%
hNav1.7 [12]
  Nav1.4/Nav1.7: 62 and 34
